“And” between values parts separate entries of the source, which are not always exact repeats. Equal values may be shown once.
What was measured:
[1] = tested on: p53; experiment: qRT-PCR gene expression, p53; type: cell-based, human; conditions: MCF-7, 7.653 μM, 24 h
Experimental: Untreated cells served as negative controls. RNA concentration and purity were verified spectrophotometrically prior to cDNA synthesis. Complementary DNA (cDNA) was synthesized from purified RNA using the RT^2 First Strand Kit (Qiagen, Valencia, CA, USA) following the supplied protocol. Quantitative real-time PCR (qRT-PCR) was performed on a Corbett Rotor-Gene 6000 system (Qiagen, USA) using the RT^2 SYBR® Green ROX™ FAST Master Mix (Qiagen). Each 25 μL reaction contained 12.5 μL of master mix, 1 μL of gene-specific primers (RT^2 qPCR Primer Assays, Qiagen), 1 μL of cDNA template, and 10.5 μL of RNase-free water. Gene-specific primers were selected using the PrimerBank database for BAX, BCL2, and TP53, along with GAPDH as the endogenous control (Table S3). Thermal cycling conditions were set as follows: initial enzyme activation at 95 °C for 10 minutes, followed by 40 cycles of denaturation at 95 °C for 15 seconds, and annealing at 60 °C for 30 seconds. Amplification specificity was confirmed by melting curve analysis. Gene expression levels were normalized to GAPDH mRNA as the internal reference, and relative quantification was performed using the ΔΔCt method. […] Statistical analysis was performed using GraphPad Prism software, with p < 0.05 considered statistically significant.[79]

[2] = molecular target: T1, COX-2 (Homo sapiens, UniProt P35354); experiment: COX-2 inhibitor screening (fluorometric); type: biochemical
T1 construct: purchased BioVision K547-100
T1 sequence (P35354 18-604): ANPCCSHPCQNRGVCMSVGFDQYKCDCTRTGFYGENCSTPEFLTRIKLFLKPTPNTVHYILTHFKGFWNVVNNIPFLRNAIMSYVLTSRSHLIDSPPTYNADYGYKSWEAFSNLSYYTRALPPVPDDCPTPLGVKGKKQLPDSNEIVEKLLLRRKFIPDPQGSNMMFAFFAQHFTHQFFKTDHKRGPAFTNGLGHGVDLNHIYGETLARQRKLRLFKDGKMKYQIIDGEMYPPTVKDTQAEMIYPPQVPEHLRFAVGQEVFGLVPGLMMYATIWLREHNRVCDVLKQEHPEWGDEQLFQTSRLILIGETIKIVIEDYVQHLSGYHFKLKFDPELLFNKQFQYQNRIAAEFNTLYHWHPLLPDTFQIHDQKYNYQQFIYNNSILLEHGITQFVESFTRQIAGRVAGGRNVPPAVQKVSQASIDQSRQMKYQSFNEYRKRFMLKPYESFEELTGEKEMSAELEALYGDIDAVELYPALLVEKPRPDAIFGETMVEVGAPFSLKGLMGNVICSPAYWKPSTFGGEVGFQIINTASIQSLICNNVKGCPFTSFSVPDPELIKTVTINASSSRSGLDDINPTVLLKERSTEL
Experimental: COX-1 and COX-2 enzymes were reconstituted in sterile water (110 μL) and kept on ice until use. Arachidonic acid was activated by mixing 5 μL with 5 μL of NaOH, followed by a 10-fold dilution with water and vortexing. A reaction mixture (80 μL per well) was prepared by combining 76 μL of assay buffer, 1 μL of COX probe, 2 μL of 200-fold diluted COX cofactor, and 1 μL of COX-1 or COX-2 enzyme. This mix was added to each well, followed by 10 μL of the prepared arachidonic acid/NaOH solution to initiate the reaction. Fluorescence was recorded at 25 °C using a microplate reader. The percent inhibition was determined by comparing the fluorescence increase in treated wells relative to the enzyme control. IC50 values were calculated from the concentration–response curves using GraphPad Prism.

## CCOC(=O)/C(C#N)=C/c1ccc(Oc2c(C)c3cc(Br)c(O)c(Br)c3[nH]c2=O)cc1 [Compound 7, ethyl (E)-2-cyano-3-(4-((6,8-dibromo-7-hydroxy-4-methyl-2-oxo-1,2-dihydroquinolin-3-yl)oxy)phenyl)acrylate]
[1]
  p53 expression relative to untreated control: 3.03 fold
[2]
  selectivity index (SI), COX-1/COX-2: 5.93
[2]; read-out: IC50 toward COX-2
  IC50: 1260 nM and 1300 nM

Reference: article PMC12461739, “Multi-targeted azacoumarin–cyanocinnamate hybrids induce G2/M arrest and apoptosis via tubulin, and COX-2/VEGFR modulation: insights from in vitro mechanistic basis and in vivo validation” (RSC Medicinal Chemistry, 2025)
